ChEMBL document CHEMBL1135882, “Synthesis and biological evaluation of 2-substituted 3beta-tolyltropane derivatives at dopamine, serotonin, and norepinephrine transporters” (J Med Chem, 2002)

Experiments:
[1] = target: Norepinephrine transporter (Rattus norvegicus, UniProt Q9WTR4); assay: Binding affinity for Norepinephrine transporter is assessed from the ability to displace [3H]nisoxetine from rat frontal cortex; type: tissue-based
Rattus norvegicus [2] = species: Rattus norvegicus; assay: Ability to inhibit [3H]dopamine uptake was measured in a chopped tissue assay; type: functional, organism-based
[3] = target: Sodium-dependent serotonin transporter (Rattus norvegicus, UniProt P31652); assay: Binding affinity for serotonin transporter is assessed from the ability to displace [3H]citalopram from rat brain.
Chain of Sodium-dependent serotonin transporter (P31652 whole entry): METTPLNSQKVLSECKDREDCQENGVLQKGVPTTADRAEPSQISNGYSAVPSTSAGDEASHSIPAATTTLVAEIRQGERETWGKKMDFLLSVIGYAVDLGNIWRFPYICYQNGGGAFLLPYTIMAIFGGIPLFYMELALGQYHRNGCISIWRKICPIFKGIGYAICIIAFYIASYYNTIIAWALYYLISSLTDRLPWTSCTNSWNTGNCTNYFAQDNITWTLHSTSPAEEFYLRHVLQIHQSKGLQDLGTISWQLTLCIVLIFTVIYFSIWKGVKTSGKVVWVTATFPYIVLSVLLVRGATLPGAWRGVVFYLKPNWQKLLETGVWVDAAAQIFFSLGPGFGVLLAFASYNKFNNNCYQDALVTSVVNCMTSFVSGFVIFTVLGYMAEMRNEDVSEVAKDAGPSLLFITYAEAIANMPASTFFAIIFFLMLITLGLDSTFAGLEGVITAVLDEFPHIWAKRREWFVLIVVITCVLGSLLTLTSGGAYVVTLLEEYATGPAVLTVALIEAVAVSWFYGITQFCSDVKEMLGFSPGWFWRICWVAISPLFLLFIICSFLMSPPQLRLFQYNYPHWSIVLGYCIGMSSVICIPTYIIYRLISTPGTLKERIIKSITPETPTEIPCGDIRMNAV

Rattus norvegicus [4] = species: Rattus norvegicus; assay: Effective dose that causes 50 percent of compound-appropriate response in rats, trained to discriminate cocaine; Value ranges from (22-51.4), effect is nonsignificant at this dose; type: functional
Rattus norvegicus [5] = assay: Percent maximum effect at 37.7 mmol/kg dose that causes compound-appropriate response in rats, trained to discriminate cocaine; type: functional
[6] = target: Sodium-dependent dopamine transporter (Rattus norvegicus, UniProt P23977); assay: Affinity for dopamine transporter was assessed by the ability to displace [3H]WIN-35428 from rat caudate-putamen tissue; type: tissue-based
Chain of Sodium-dependent dopamine transporter (P23977 whole entry): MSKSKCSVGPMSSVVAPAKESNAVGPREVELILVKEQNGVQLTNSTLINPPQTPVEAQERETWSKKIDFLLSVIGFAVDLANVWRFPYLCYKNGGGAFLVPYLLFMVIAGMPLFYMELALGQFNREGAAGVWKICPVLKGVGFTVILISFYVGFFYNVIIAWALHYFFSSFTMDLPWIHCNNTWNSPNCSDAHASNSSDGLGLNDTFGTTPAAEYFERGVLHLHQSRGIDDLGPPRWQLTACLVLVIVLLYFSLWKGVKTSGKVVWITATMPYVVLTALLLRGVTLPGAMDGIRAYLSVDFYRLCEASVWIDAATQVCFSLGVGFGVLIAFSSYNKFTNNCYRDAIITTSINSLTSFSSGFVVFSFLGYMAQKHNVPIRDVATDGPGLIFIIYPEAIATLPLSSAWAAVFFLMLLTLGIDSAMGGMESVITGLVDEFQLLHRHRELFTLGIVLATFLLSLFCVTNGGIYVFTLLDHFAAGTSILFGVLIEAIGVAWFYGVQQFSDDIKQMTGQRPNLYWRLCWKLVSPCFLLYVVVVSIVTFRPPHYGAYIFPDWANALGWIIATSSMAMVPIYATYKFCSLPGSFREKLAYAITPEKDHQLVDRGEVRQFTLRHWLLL

Rattus norvegicus [7] = species: Rattus norvegicus; assay: Effective dose that causes 50 percent of compound-appropriate response in rats, trained to discriminate cocaine; NS means Nonsignificant linear regression.; type: functional, organism-based
Rattus norvegicus [8] = species: Rattus norvegicus; assay: Effective dose that causes 50 percent of compound-appropriate response in rats, trained to discriminate cocaine; Value ranges from (9.07-256), effect is nonsignificant at this dose; type: functional
Rattus norvegicus [9] = assay: Percent maximum effect at 2.69 mmol/kg dose that causes compound-appropriate response in rats, trained to discriminate cocaine; type: functional
Rattus norvegicus [10] = assay: Percent maximum effect at 39.0 mmol/kg dose that causes compound-appropriate response in rats, trained to discriminate cocaine; type: functional
Rattus norvegicus [11] = assay: Percent maximum effect at 27.0 mmol/kg dose that causes compound-appropriate response in rats, trained to discriminate cocaine; type: functional
Rattus norvegicus [12] = species: Rattus norvegicus; assay: Effective dose that causes 50 percent of compound-appropriate response in rats, trained to discriminate cocaine; Value ranges from (17.1-1.22)x10E5, effect is nonsignificant at this dose; type: functional
Rattus norvegicus [13] = assay: Percent maximum effect at 45.7 mmol/kg dose that causes compound-appropriate response in rats, trained to discriminate cocaine; type: functional
Rattus norvegicus [14] = assay: Percent maximum effect at 54.9 mmol/kg dose that causes compound-appropriate response in rats, trained to discriminate cocaine; type: functional
Rattus norvegicus [15] = assay: Percent maximum effect at 89.3 mmol/kg dose that causes compound-appropriate response in rats, trained to discriminate cocaine; type: functional

Chain of Norepinephrine transporter (Q9WTR4 whole entry): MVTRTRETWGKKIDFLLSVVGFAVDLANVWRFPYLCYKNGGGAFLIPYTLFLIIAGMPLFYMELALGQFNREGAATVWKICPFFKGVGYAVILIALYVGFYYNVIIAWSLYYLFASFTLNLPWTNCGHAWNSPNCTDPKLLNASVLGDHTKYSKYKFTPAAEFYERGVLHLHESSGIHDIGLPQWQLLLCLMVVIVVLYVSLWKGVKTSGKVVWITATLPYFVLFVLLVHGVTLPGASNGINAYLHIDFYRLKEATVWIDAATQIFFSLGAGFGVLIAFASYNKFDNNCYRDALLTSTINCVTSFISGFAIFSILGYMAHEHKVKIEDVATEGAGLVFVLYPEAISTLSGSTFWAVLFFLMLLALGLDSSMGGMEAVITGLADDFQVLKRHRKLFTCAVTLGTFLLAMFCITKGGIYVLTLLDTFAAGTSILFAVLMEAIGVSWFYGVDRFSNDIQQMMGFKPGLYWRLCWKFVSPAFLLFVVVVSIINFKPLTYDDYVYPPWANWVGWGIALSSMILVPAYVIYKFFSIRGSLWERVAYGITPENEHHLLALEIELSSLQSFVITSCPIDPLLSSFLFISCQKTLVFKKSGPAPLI

Cc1ccc([C@@H](O)[C@@H]2C3CC[C@H](C[C@@H]2c2ccc(C)cc2)N3C)cc1
Ki [1]: 214 nM | IC50 (Rattus norvegicus [2]): 107 nM | Ki [3]: 70 nM | ED50 (Rattus norvegicus [4]): 31400 µmol/kg | Max effect (Rattus norvegicus [5]): 66.7% | Ki [6]: 85 nM

Cc1ccc(C2C[C@H]3CCC([C@@H]2CO)N3C)cc1 (some centres undefined)
Ki [1]: 16800 nM | IC50 (Rattus norvegicus [2]): 4040 nM | NS (Rattus norvegicus [7]): Nonsignificant linear regression | Ki [3]: 16000 nM | ED50 (Rattus norvegicus [8]): 20600 µmol/kg | Ki [6]: 3490 nM | Max effect (Rattus norvegicus [9]): 2.96%

Cc1ccc(CC2C(c3ccc(C)cc3)C[C@H]3CCC2N3C)cc1 (some centres undefined)
Ki [1]: 271 nM | IC50 (Rattus norvegicus [2]): 16 nM | Ki [6]: 11 nM | Max effect (Rattus norvegicus [10]): 82.8%

Cc1ccc(C(=O)C2C(c3ccc(C)cc3)CC3CCC2N3C)cc1 (centres undefined)
Max effect (Rattus norvegicus [11]): 100% | IC50 (Rattus norvegicus [2]): 82 nM | Ki [6]: 17 nM

Cc1ccc([C@H]2C[C@H]3CC[C@H]([C@H]2[C@@H](O)c2ccc(C)cc2)N3C)cc1
Ki [1]: 464 nM | ED50 (Rattus norvegicus [12]): 61600 µmol/kg | Max effect (Rattus norvegicus [13]): 97.9% | IC50 (Rattus norvegicus [2]): 144 nM | Ki [3]: 66 nM | Ki [6]: 14 nM

Cc1ccc(C2C[C@H]3CCC(C2CCCO)N3C)cc1 (some centres undefined)
IC50 (Rattus norvegicus [2]): 266 nM | Max effect (Rattus norvegicus [14]): 93.9% | Ki [6]: 136 nM

Cc1ccc([C@H]2C[C@H]3CC[C@H]([C@@H]2[C@@H](O)c2ccc(C)cc2)N3C)cc1
IC50 (Rattus norvegicus [2]): 58 nM | Ki [6]: 25 nM

COC(=O)/C=C/C1C(c2ccc(C)cc2)C[C@H]2CCC1N2C (some centres undefined)
IC50 (Rattus norvegicus [2]): 311 nM | Ki [6]: 123 nM | Max effect (Rattus norvegicus [15]): 69.9%
